Measurements reported in patent US20100081718A1, “CO[…]-2-DELTA LIGANDS” (Pfizer Inc, priority 2003, published 2010).
Counter-ions that a name gives are not always drawn.

Legend:
[1] = Plasma concentration (Cmax) of gabapentin in the rat

Row | Compound | Cmax [1] [ng/mL] | melting point [°C]
1 | NCC1(CC(=O)O)CCCCC1 [gabapentin, 1-(aminomethyl)-cyclohexylacetic acid] | 520 to 10500 | 
2 | CCC[C@@H](C)C[C@H](N)CC(=O)O.Cl |  | 142.5 to 142.7
3 | CCCC[C@@H](C)C[C@H](N)CC(=O)O (as salt: hydrochloride) |  | 142.5 to 143.3
